Read-outs that look alike come from different tables or passages of the source.
Tests used:
Format in all cases: cell-based
[1] = test system: MOLT-4; assay: NCI 60 antitumor screening (single dose / five doses); conditions: Homo sapiens; for GI50: MOLT-4, five doses (0.01–100 μM), read-out: GI50
[2] = test system: RPMI-8226; assay: as above; conditions: Homo sapiens; for GI50: RPMI-8226, five doses (0.01–100 μM), read-out: GI50
[3] = test system: A549/ATCC; assay: NCI 60 antitumor screening (single dose); conditions: Homo sapiens; A549/ATCC (non-small cell lung cancer), single dose 10 μM; read-out: Growth inhibition percentage (GI %)
Description: (§1) Initially, the anticancer effects of target compounds have been assessed at a single (10 μM) dose. The obtained data have been reported as mean-graph of the percent growth (G%) of the treated cancer cells. Percentage growth inhibition (GI%) is calculated (100 − G%) and pronounced in Table 1. […] Target compounds in series (III) with manipulated linkers disclosed lower potency. Superiorly, eight s-triazine derivatives from the three series (6a, 6c, 6d, 7a, 7g, 7i, 7l, and 8b) have shown potent broad-spectrum anticancer activity against most the examined cell lines, whereas most of the remaining triazine derivatives, 20 derivatives, have exerted selective anti-proliferative actions towards certain cancer cell lines (Supplementary).
(§2) The antitumor screening was performed for 60 human cancer cell lines under the protocol of NCI (www.dtp.nci.nih.gov), the Drug Evaluation Branch, Bethesda, MD. All submitted compounds were nominated based on the degree of structural diversity and computer modelling techniques for evaluation of their anticancer activity. The screening process for antineoplastic activity passes through two successive levels, starting with the assessment of target compounds at a single dose of 10 μM against 60 cancer cell lines on nine types of human tumours. These experiments were done on a triplicate following. The output from the single‐dose screening was covered as a mean graph, and then, analysed by the COMPARE program. Finally, the compounds which disclosed subpanel cancer cell growth (G %) equal to or less than 10% in at least eight cancer cell lines get to pass the assessment against the 60 cell lines at five doses (0.01–100 μM). By using GraphPad Prism version 9.0 (Graphpad Software Inc., La Jolla, CA), GI50, TGI, as well as LC50 dose‐response parameters were computed and presented for each compound (Supplementary information)[55–57].

[4] = test system: CAKI-1; assay: NCI 60 antitumor screening (single dose); conditions: Homo sapiens; CAKI-1 (renal cancer), single dose 10 μM; read-out: Growth inhibition percentage (GI %)
Description: as §1, §2

[5] = test system: HCC-2998; assay: NCI 60 antitumor screening (single dose); conditions: Homo sapiens; HCC-2998 (colon cancer), single dose 10 μM; read-out: Growth inhibition percentage (GI %)
Description: as §1, §2

[6] = test system: HOP-62; assay: NCI 60 antitumor screening (single dose); conditions: Homo sapiens; HOP-62 (non-small cell lung cancer), single dose 10 μM; read-out: Growth inhibition percentage (GI %)
Description: as §1, §2

[7] = test system: KM 12; assay: NCI 60 antitumor screening (single dose); conditions: Homo sapiens, KM12; KM 12 (colon cancer), single dose 10 μM; read-out: Growth inhibition percentage (GI %)
Description: as §1, §2

[8] = test system: M14; assay: NCI 60 antitumor screening (single dose); conditions: Homo sapiens; M14 (melanoma), single dose 10 μM; read-out: Growth inhibition percentage (GI %)
Description: as §1, §2

[9] = test system: MCF7; assay: NCI 60 antitumor screening (single dose); conditions: Homo sapiens; MCF7 (breast cancer), single dose 10 μM; read-out: Growth inhibition percentage (GI %)
Description: as §1, §2

[10] = test system: NCI-H226; assay: NCI 60 antitumor screening (single dose); conditions: Homo sapiens; NCI-H226 (non-small cell lung cancer), single dose 10 μM; read-out: Growth inhibition percentage (GI %)
Description: as §1, §2

[11] = test system: NCI-H23; assay: NCI 60 antitumor screening (single dose); conditions: Homo sapiens; NCI-H23 (non-small cell lung cancer), single dose 10 μM; read-out: Growth inhibition percentage (GI %)
Description: as §1, §2

[12] = test system: NCI-H322M; assay: NCI 60 antitumor screening (single dose); conditions: Homo sapiens; NCI-H322M (non-small cell lung cancer), single dose 10 μM; read-out: Growth inhibition percentage (GI %)
Description: as §1, §2

[13] = test system: NCI-H522; assay: NCI 60 antitumor screening (single dose); conditions: Homo sapiens; NCI-H522 (non-small cell lung cancer), single dose 10 μM; read-out: Growth inhibition percentage (GI %)
Description: as §1, §2

[14] = test system: OVCAR-3; assay: NCI 60 antitumor screening (single dose); conditions: Homo sapiens; OVCAR-3 (ovarian cancer), single dose 10 μM; read-out: Growth inhibition percentage (GI %)
Description: as §1, §2

[15] = test system: OVCAR-4; assay: NCI 60 antitumor screening (single dose); conditions: Homo sapiens; OVCAR-4 (ovarian cancer), single dose 10 μM; read-out: Growth inhibition percentage (GI %)
Description: as §1, §2

[16] = test system: OVCAR-5; assay: NCI 60 antitumor screening (single dose); conditions: Homo sapiens; OVCAR-5 (ovarian cancer), single dose 10 μM; read-out: Growth inhibition percentage (GI %)
Description: as §1, §2

[17] = test system: OVCAR-8; assay: NCI 60 antitumor screening (single dose); conditions: Homo sapiens; OVCAR-8 (ovarian cancer), single dose 10 μM; read-out: Growth inhibition percentage (GI %)
Description: as §1, §2

[18] = test system: SF-268; assay: NCI 60 antitumor screening (single dose); conditions: Homo sapiens; SF-268 (CNS cancer), single dose 10 μM; read-out: Growth inhibition percentage (GI %)
Description: as §1, §2

[19] = test system: SNB-19; assay: NCI 60 antitumor screening (single dose); conditions: Homo sapiens; SNB-19 (CNS cancer), single dose 10 μM; read-out: Growth inhibition percentage (GI %)
Description: as §1, §2

[20] = test system: TK-10; assay: NCI 60 antitumor screening (single dose); conditions: Homo sapiens; TK-10 (renal cancer), single dose 10 μM; read-out: Growth inhibition percentage (GI %)
Description: as §1, §2

[21] = test system: U251; assay: NCI 60 antitumor screening (single dose); conditions: Homo sapiens, U-251; U251 (CNS cancer), single dose 10 μM; read-out: Growth inhibition percentage (GI %)
Description: as §1, §2

[22] = test system: HCT-116; assay: NCI 60 antitumor screening (single dose / five doses); conditions: Homo sapiens; for GI50: HCT-116, five doses (0.01–100 μM), read-out: GI50
[23] = test system: HCT-15; assay: as above; conditions: Homo sapiens; for GI50: HCT-15, five doses (0.01–100 μM), read-out: GI50
[24] = test system: 786-0; assay: as above; conditions: Homo sapiens; for GI50: 786-0, five doses (0.01–100 μM), read-out: GI50
[25] = test system: UO-31; assay: as above; conditions: Homo sapiens; for inhibition at 10 µM: UO-31 (renal cancer), single dose 10 μM, read-out: Growth inhibition percentage (GI %); for GI50: UO-31, five doses (0.01–100 μM), read-out: GI50
[26] = test system: BT-549; assay: as above; conditions: Homo sapiens; for GI50: BT-549, five doses (0.01–100 μM), read-out: GI50
[27] = test system: T-47D; assay: as above; conditions: Homo sapiens, T47D; for inhibition at 10 µM: read-out: Growth inhibition percentage (GI %); for GI50: T-47D, five doses (0.01–100 μM), read-out: GI50
[28] = MOLT-4 (leukaemia), single dose 10 μM, read-out: Growth inhibition percentage (GI %)
[29] = RPMI-8226 (leukaemia), single dose 10 μM, read-out: Growth inhibition percentage (GI %)
[30] = HCT-116 (colon cancer), single dose 10 μM, read-out: Growth inhibition percentage (GI %)
[31] = HCT-15 (colon cancer), single dose 10 μM, read-out: Growth inhibition percentage (GI %)
[32] = 786-0, 786-0 (renal cancer), single dose 10 μM, read-out: Growth inhibition percentage (GI %)
[33] = BT-549 (breast cancer), single dose 10 μM, read-out: Growth inhibition percentage (GI %)
[34] = T-47D (breast cancer), single dose 10 μM

Oc1ccccc1/C=N/Nc1nc(N/N=C/c2ccccc2O)nc(N2CCOCC2)n1 [compound 6a, 2-[(1e)-(2-{4-[(E)-2-[(2-Hydroxyphenyl)methylidene]hydrazin-1-yl]-6-(morpholin-4-yl)-1,3,5-triazin-2-yl}hydrazin-1-ylidene)methyl]phenol]
inhibition at 10 µM [1, 28]: 54.9%
GI50 [1]: 1550 nM
inhibition at 10 µM [2, 29]: 46.4%
GI50 [2]: 2780 nM
inhibition at 10 µM [3]: 87%
inhibition at 10 µM [4]: 95.4%
inhibition at 10 µM [5]: 41.1%
inhibition at 10 µM [6]: 74.3%
inhibition at 10 µM [7]: 47.3%
inhibition at 10 µM [8]: 62.4%
inhibition at 10 µM [9]: 60%
inhibition at 10 µM [10]: 76.7%
inhibition at 10 µM [11]: 58.5%
inhibition at 10 µM [12]: 55.5%
inhibition at 10 µM [13]: 39.1%
inhibition at 10 µM [14]: 66.4%
inhibition at 10 µM [15]: 88.2%
inhibition at 10 µM [16]: 63%
inhibition at 10 µM [17]: 87.3%
inhibition at 10 µM [18]: 27.7%
inhibition at 10 µM [19]: 58.3%
inhibition at 10 µM [20]: 52%
inhibition at 10 µM [21]: 78%
inhibition at 10 µM [22, 30]: 80.8%
GI50 [22]: 820 nM
inhibition at 10 µM [23, 31]: 96.1%
GI50 [23]: 240 nM
inhibition at 10 µM [24, 32]: 69.7%
GI50 [24]: 710 nM
inhibition at 10 µM [25]: 80.2%
GI50 [25]: 370 nM
inhibition at 10 µM [26, 33]: 23.7%
GI50 [26]: 5190 nM
inhibition at 10 µM [27, 34]: 53.9%
GI50 [27]: 3340 nM

Brc1cccc(/C=N/Nc2nc(N/N=C/c3cccc(Br)c3)nc(N3CCOCC3)n2)c1 [compound 6c, 2,4-Bis[(E)-2-[(3-bromophenyl)methylidene]hydrazin-1-yl]-6-(morpholin-4-yl)-1,3,5-triazine]
inhibition at 10 µM [1, 28]: 89.8%
GI50 [1]: 680 nM
inhibition at 10 µM [2, 29]: 65.8%
GI50 [2]: 1680 nM
inhibition at 10 µM [3]: 57.4%
inhibition at 10 µM [4]: 84.6%
inhibition at 10 µM [5]: 68.5%
inhibition at 10 µM [6]: 47.7%
inhibition at 10 µM [7]: 69.7%
inhibition at 10 µM [8]: 68.3%
inhibition at 10 µM [9]: 77.9%
inhibition at 10 µM [10]: 56.7%
inhibition at 10 µM [11]: 56.9%
inhibition at 10 µM [12]: 47.2%
inhibition at 10 µM [13]: 66.5%
inhibition at 10 µM [14]: 57.5%
inhibition at 10 µM [15]: 45.8%
inhibition at 10 µM [16]: 27.6%
inhibition at 10 µM [17]: 62.6%
inhibition at 10 µM [18]: 31.6%
inhibition at 10 µM [19]: 22.1%
inhibition at 10 µM [20]: 33.2%
inhibition at 10 µM [21]: 57.3%
inhibition at 10 µM [22, 30]: 78.8%
GI50 [22]: 780 nM
inhibition at 10 µM [23, 31]: 109%
GI50 [23]: 420 nM
inhibition at 10 µM [24, 32]: 75.5%
GI50 [24]: 530 nM
inhibition at 10 µM [25]: 74.5%
GI50 [25]: 1010 nM
inhibition at 10 µM [26, 33]: 47.3%
GI50 [26]: 3540 nM
inhibition at 10 µM [27, 34]: 43.5%
GI50 [27]: 3940 nM

C/C(=N\Nc1nc(N/N=C(\C)c2ccc([N+](=O)[O-])cc2)nc(N2CCOCC2)n1)c1ccc([N+](=O)[O-])cc1 [compound 8a, 2-(Morpholin-4-yl)-4,6-bis[(E)-2-[1–(4-nitrophenyl)ethylidene]hydrazin-1-yl]-1,3,5-triazine]
inhibition at 10 µM ([1]; MOLT-4, read-out: Growth inhibition percentage (GI %)): 21.1%
inhibition at 10 µM ([2]; RPMI-8226, read-out: Growth inhibition percentage (GI %)): 35.3%
inhibition at 10 µM [3]: 26.1%
inhibition at 10 µM [4]: 30.8%
inhibition at 10 µM [5]: 3.95%
inhibition at 10 µM [6]: 13.8%
inhibition at 10 µM [7]: 17.9%
inhibition at 10 µM [8]: 25.5%
inhibition at 10 µM [9]: 25.9%
inhibition at 10 µM [10]: 58.1%
inhibition at 10 µM [11]: 42.1%
inhibition at 10 µM [12]: 13.3%
inhibition at 10 µM [13]: 38.3%
inhibition at 10 µM [14]: 11.6%
inhibition at 10 µM [15]: 22.4%
inhibition at 10 µM [16]: 4.46%
inhibition at 10 µM [17]: 36.4%
inhibition at 10 µM [18]: 3.96%
inhibition at 10 µM [19]: 36.9%
inhibition at 10 µM [20]: 19.2%
inhibition at 10 µM [21]: 7.36%
inhibition at 10 µM ([22]; HCT-116, read-out: Growth inhibition percentage (GI %)): 29.4%
inhibition at 10 µM ([23]; HCT-15, read-out: Growth inhibition percentage (GI %)): 33.9%
inhibition at 10 µM ([24]; 786-0, read-out: Growth inhibition percentage (GI %)): 33.1%
inhibition at 10 µM ([26]; BT-549, read-out: Growth inhibition percentage (GI %)): 32.7%
inhibition at 10 µM [27]: 45.1%
